Drawing on PubChem BioAssay (NCI), this text covers TGI and GI50 for nine compounds.

Among the test systems are NCI-H23 lung; M14 melanoma; SK-OV-3 ovarian; HS 578T breast; CAKI-1 renal; KM12 colon; SF-268 CNS; UACC-62 melanoma; NCI-H522 lung; DU-145 prostate.
Common to all, as to assay: DTP human tumour cell line panel, 48 h

SMILES strings stand for the structures.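 How tested: cells in 96-well plates exposed to compound for 48 hours at five concentrations. Abbreviation: GI50, concentration required for 50% inhibition of growth. TGI denotes the concentration required for complete inhibition of growth.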 Some results are limits rather than exact numbers.

As to `O=C1OC(c2ccc(O)c(-c3ccccc3)c2)(c2ccc(O)c(-c3ccccc3)c2)c2c(Cl)c(Cl)c(Cl)c(Cl)c21`, the TGI in the assay on NCI-H23 lung, with M14 melanoma, with SK-OV-3 ovarian, in the assay with HS 578T breast, in the assay with CAKI-1 renal and with KM12 colon was > 100 µM in each case. In addition, the concentration for total growth inhibition (TGI) in the assay with SF-268 CNS, with UACC-62 melanoma, with NCI-H522 lung and in the assay on DU-145 prostate was > 100 µM in each case.

As for `CC(=O)OC1COC(S[As](C)C)C(OC(C)=O)C1OC(C)=O` (stereo unspecified), the GI50 with NCI-H23 lung is 0.322 µM; in the assay on M14 melanoma, < 0.0419 µM; with SK-OV-3 ovarian it was 1.81 µM; in the assay on HS 578T breast, 0.344 µM; in the assay on CAKI-1 renal it was 0.041 µM; with KM12 colon, 1.15 µM. Further, the GI50 was 1.23 µM in the assay with SF-268 CNS, 0.285 µM in the assay with UACC-62 melanoma, 0.0321 µM in the assay on NCI-H522 lung and 0.0701 µM in the assay on DU-145 prostate. For the same compound, the TGI was found to be 4.53 µM with NCI-H23 lung; 1.1 µM with M14 melanoma; 17.3 µM in the assay on SK-OV-3 ovarian; 0.916 µM in the assay on HS 578T breast; 0.74 µM in the assay with CAKI-1 renal; 9.24 µM in the assay on KM12 colon. Moreover, the TGI was 11.6 µM with SF-268 CNS, 1.61 µM in the assay on UACC-62 melanoma, 0.139 µM in the assay on NCI-H522 lung and 0.902 µM with DU-145 prostate.

For the compound `C=CC1CC12C(=O)C1OC2(C)C2C(=O)c3c(ccc4c3ccc3ccccc34)C(=O)C12` (stereo unspecified), the GI50 in the assay with NCI-H23 lung is 37.3 µM; in the assay with M14 melanoma, 67.3 µM; with SK-OV-3 ovarian, > 100 µM; in the assay on HS 578T breast, 68.1 µM; in the assay on CAKI-1 renal it was 19.1 µM; in the assay on KM12 colon, 13.1 µM. Further, the GI50 with SF-268 CNS was 36.2 µM; in the assay on NCI-H522 lung, > 100 µM. Moreover, the TGI was > 100 µM in the assay with NCI-H23 lung; > 100 µM in the assay on M14 melanoma; > 100 µM with SK-OV-3 ovarian; > 100 µM in the assay with HS 578T breast; 58.6 µM with CAKI-1 renal; > 100 µM in the assay on KM12 colon. For the same compound, the TGI with SF-268 CNS and with NCI-H522 lung was > 100 µM throughout.

Take `CC(=O)O[C@@H]1CO[C@H]2O[C@H]3[C@@H](C(C=O)=C[C@H](O)[C@@H]4C5=C(C(C)C)CC[C@]5(C)CC[C@@]34C)[C@@]2(O)C1=O`: the TGI in the assay with NCI-H23 lung came to 0.893 µM; with M14 melanoma, 0.723 µM; with HS 578T breast it was 0.594 µM; with CAKI-1 renal, 0.486 µM; in the assay with KM12 colon, 1.46 µM; in the assay with SF-268 CNS it was 0.667 µM. Moreover, the TGI in the assay on UACC-62 melanoma was found to be 1.06 µM; in the assay with NCI-H522 lung, 0.24 µM; in the assay with DU-145 prostate it was 2.02 µM.

For the compound `COC(=O)c1ccccc1NC(=O)/C(=N\NC(C)(C)C)C(C#N)c1nc(-c2ccc([N+](=O)[O-])cc2)cs1` (stereo unspecified), the TGI with NCI-H23 lung, with M14 melanoma, in the assay on SK-OV-3 ovarian, in the assay with HS 578T breast, with CAKI-1 renal and in the assay on KM12 colon was > 100 µM each time. Also, the TGI with SF-268 CNS, in the assay with UACC-62 melanoma and in the assay with DU-145 prostate was > 100 µM each time.

As for `CC(=O)/C=C/C1=C(c2cc3ccccc3s2)c2ccccc2CC1`, the GI50 with M14 melanoma is 15.1 µM; in the assay on SK-OV-3 ovarian, 67.9 µM; in the assay on HS 578T breast, 52.5 µM; with CAKI-1 renal, 51.1 µM; in the assay with KM12 colon, 18.5 µM; in the assay on SF-268 CNS, 27.1 µM. Further, the results for the GI50 with UACC-62 melanoma, in the assay on NCI-H522 lung and with DU-145 prostate were 16.7 µM, 26 µM and 52.8 µM, respectively. Further, the TGI in the assay on M14 melanoma was 31.3 µM; in the assay on SK-OV-3 ovarian it was > 100 µM; with HS 578T breast, > 100 µM; in the assay with CAKI-1 renal, > 100 µM; in the assay with KM12 colon, 42.2 µM; in the assay with SF-268 CNS, > 100 µM. For the same compound, the TGI in the assay with UACC-62 melanoma is 34.2 µM; in the assay on NCI-H522 lung, 72.2 µM; in the assay with DU-145 prostate, > 100 µM.

With `CN1CCN(c2ccc3c4c(cccc24)C(=O)N(CCN2CCN(CCCN4CCN(CCN5C(=O)c6cccc7c(N8CCN(C)CC8)ccc(c67)C5=O)CC4)CC2)C3=O)CC1`, the GI50 is 7.08 µM with NCI-H23 lung; 7.54 µM in the assay with M14 melanoma; 9.49 µM in the assay with SK-OV-3 ovarian; 10.6 µM in the assay with HS 578T breast; 8.21 µM in the assay with CAKI-1 renal; 4.34 µM in the assay with KM12 colon. In addition, the GI50 was 4.57 µM in the assay with SF-268 CNS, 8.45 µM in the assay with UACC-62 melanoma and 7.19 µM in the assay with DU-145 prostate. Moreover, the TGI in the assay on NCI-H23 lung stood at 13.8 µM; with M14 melanoma it was 14.2 µM; with SK-OV-3 ovarian it was 18.3 µM; in the assay with HS 578T breast, 38.7 µM; with CAKI-1 renal, 16.8 µM; in the assay with KM12 colon, 14.1 µM. Besides, the TGI in the assay on SF-268 CNS was 47.5 µM; in the assay on UACC-62 melanoma, 15.7 µM; in the assay with DU-145 prostate, 17 µM.

Consider `CCCCC(=O)N/N=C/c1cc(I)cc(I)c1O`, for which the GI50 was 2.7 µM with M14 melanoma; 3.4 µM in the assay on SK-OV-3 ovarian; 7.92 µM in the assay with HS 578T breast; 1.58 µM in the assay with CAKI-1 renal; 3.74 µM with KM12 colon; 2.15 µM with SF-268 CNS. Besides, the GI50 with UACC-62 melanoma was 2.24 µM; with NCI-H522 lung, 2.91 µM; in the assay on DU-145 prostate, 4.24 µM. The TGI is 14.8 µM in the assay on M14 melanoma; 20.7 µM in the assay with SK-OV-3 ovarian; 54.4 µM in the assay on HS 578T breast; 10.5 µM in the assay on CAKI-1 renal; 53.8 µM with KM12 colon; 21.6 µM in the assay with SF-268 CNS. In addition, the values for the TGI with UACC-62 melanoma, with NCI-H522 lung and in the assay on DU-145 prostate were 8.33 µM, 17.5 µM and 31 µM, respectively.

As to `CCN(CC)c1ccc2c(c1)Oc1nc(N)c(C#N)c(N)c1C2Sc1ccc(SC)cc1` (stereo unspecified), the GI50 in the assay with NCI-H23 lung was 1.58 µM; in the assay on M14 melanoma it was 1.74 µM; with SK-OV-3 ovarian, 2.16 µM; with HS 578T breast, 2.15 µM; in the assay with KM12 colon, 1.66 µM; in the assay with SF-268 CNS, 1.69 µM. For the same compound, the GI50 in the assay on UACC-62 melanoma is 1.48 µM; in the assay on NCI-H522 lung it was 2.42 µM; with DU-145 prostate it was 1.82 µM. Further, the TGI in the assay on NCI-H23 lung was found to be 3.16 µM; with M14 melanoma, 3.47 µM; in the assay on SK-OV-3 ovarian, 3.96 µM; in the assay with HS 578T breast it was 7.1 µM; in the assay on KM12 colon it was 3.46 µM; in the assay with SF-268 CNS it was 3.44 µM. The TGI in the assay on UACC-62 melanoma is 2.96 µM; in the assay on NCI-H522 lung, 4.31 µM; in the assay with DU-145 prostate, 3.21 µM.

Broadly, the TGI is the concentration at which net growth stops. Lower therefore signals greater sensitivity of the cells. Broadly, the GI50 is the concentration at which growth is held to half of that of the control.
